Results taken from patent publication US5556751A, “Selective amplification system using Q-β replicase” (Amoco Corporation, priority 1994, dated 1996).

Experiments:
[1] = molecular target: replication of MDV-1 by Qβ replicase (Escherichia virus Qbeta, UniProt P14647); test: Inhibition of MDV-1 replication by dyes in linear-phase Qβ replicase reactions; assay type: biochemical, bacteriophage Qβ; details: for ability to inhibit the replication of MDV-1: linear-phase reactions, template RNA in excess over enzyme
Method: A number of dyes, including ethidium bromide, ethidium bromide homodimer, propidium iodide, proflavine, quinacrine, Hoescht 33258 (bis-benzamidine),dimidium bromide and acridine orange, were tested for their ability to inhibit the replication of MDV-1 in linear-phase reactions, i.e., where the template RNA is present in excess over the enzyme and the amount of replicated RNA thus increases linearly with time. […] One of the strongest inhibitors, propidium iodide, was selected for further study.

[2] = molecular target: T1, replication of wild type MDV-1 RNA by Qβ replicase (Escherichia virus Qbeta, UniProt P14647); test: Effect of propidium iodide on replication of wild type MDV-1 RNA in a Qβ replicase preparation (32P-CTP incorporation time course); assay type: biochemical, bacteriophage Qβ
T1 construct: made in house
Method: Propidium iodide was tested for its effect on the replication of wild type RNA in a preparation of Qβ replicase. Propidium iodide in an amount of either 0, 1, or 3 μg/ml was added to a reaction buffer containing: 90 mM Tris HCl (pH7.5), 14 mM MgCl2, 0.4 mM each ATP, GTP, UTP, and CTP, and 10 μCi α- ^32 P-CTP. The Qβ replicase reaction was initiated in each sample by addition of 1.2 μg of Qβ replicase prepared according to the method of Eoyang and August, (1972), ibid. Aliquots of the reaction mixture were withdrawn every 5 minutes and spotted on DE81 filters (Schleicher & Schuell Inc., Keene, N.H.). The spotted filters were washed repeatedly with 0.5M NaPO4, (pH7.0) to remove unincorporated nucleotide. The filters were counted for Cerenkov radiation by standard procedures in a scintillation counter. Addition of propidium iodide delayed the point in time at which levels of incorporation resulting from the replication of wild type MDV-1 template became detectable.

| Structure (SMILES) | ability to inhibit the replication of MDV-1 [1] | further results |
| --- | --- | --- |
| Cl.Cl.Nc1ccc2c(c1)c(-c1ccccc1)[n+](CCCNCCNCCC[n+]1c(-c3ccccc3)c3cc(N)ccc3c3ccc(N)cc31)c1cc(N)ccc21.[Cl-].[Cl-] [ethidium bromide homodimer] | inhibited | – |
| CC[n+]1c(-c2ccccc2)c2cc(N)ccc2c2ccc(N)cc21 [ethidium bromide] | inhibited | – |
| CC[N+](C)(CC)CCC[n+]1c(-c2ccccc2)c2cc(N)ccc2c2ccc(N)cc21 [propidium iodide] | inhibited | inhibition at 1 µg/mL ([2]; propidium iodide 1 μg/ml, read-out: inhibition of the rate of replication in the geometric phase): 20 to 50%; delay of the appearance of replicated product ([2]; propidium iodide 1 μg/ml, wild type MDV-1 template): 2 to 5 min; reduction in the rate of replication ([2]; propidium iodide 3μg/ml): ~3 fold; delay of the appearance of product ([2]; propidium iodide 3μg/ml, wild type MDV-1 template): about 20 minutes; inhibition at 3 µg/mL ([1]; dye concentration about 3μg/ml): 70% |
| CN1CCN(c2ccc3[nH]c(-c4ccc5[nH]c(-c6ccc(O)cc6)nc5c4)nc3c2)CC1 [Hoescht 33258, Hoescht 33258 (bis-benzamidine)] | except Hoescht 33258, inhibited | – |
| CN(C)c1ccc2cc3ccc(N(C)C)cc3nc2c1 [acridine orange] | inhibited | – |
| Nc1ccc2cc3ccc(N)cc3nc2c1 [proflavine] | inhibited | – |
| C[n+]1c(-c2ccccc2)c2cc(N)ccc2c2ccc(N)cc21 [dimidium bromide] | inhibited | – |
| CCN(CC)CCCC(C)Nc1c2ccc(Cl)cc2nc2ccc(OC)cc12 (stereo not shown) [quinacrine] | inhibited | – |
